From patent US20230382904A1, “SUBSTITUTED 4-([1,2,4]TRIAZOLO[1,5-a]PYRIDIN-6-YL)THIOPHENE-2-CARBOXAMIDE DERIVATIVES AND USE THEREOF” (The Johns Hopkins University, priority 2020, published 2023)

Columns and labels:
LZK = LZK (Homo sapiens (Human), UniProt O43283); experiment: LZK biochemical assay (TR-FRET, MKK7 phosphorylation)
How it was run: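 Catalytic-domain LZK (10 nM) phosphorylated His-MKK7 (15 nM) with 15 μM ATP for 90 min at RT. Phospho-T275/S277 detected by Eu-anti-phospho-MKK7/XL665-anti-His TR-FRET after 16 h at 32° C, using the 665/Eu ratio. Buffer: 50 mM Hepes pH 7.5, 10 mM MgCl2, 1 mM DTT.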

DLK = DLK (Homo sapiens (Human), UniProt Q12852); experiment: DLK biochemical assay (TR-FRET, MKK7 phosphorylation)
How it was run: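 Catalytic-domain DLK (10 nM) phosphorylates His-MKK7 (15 nM) with 60 μM ATP, 90 min at RT, in pH 7.5 HEPES buffer. Phospho-T275/S277 read by TR-FRET (Eu anti-phospho donor, XL665 anti-His acceptor) after 16 h detection, at 37° C. in 1536 or 4° C. in 384 format.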

Chain of LZK (O43283 168-409): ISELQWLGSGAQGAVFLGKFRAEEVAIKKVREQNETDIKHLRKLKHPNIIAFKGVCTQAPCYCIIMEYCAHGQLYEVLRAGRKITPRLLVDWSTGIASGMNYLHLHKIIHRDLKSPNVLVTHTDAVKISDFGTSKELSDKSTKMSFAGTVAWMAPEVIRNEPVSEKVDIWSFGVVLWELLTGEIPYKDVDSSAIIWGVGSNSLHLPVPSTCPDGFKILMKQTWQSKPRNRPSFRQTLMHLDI
Chain of DLK (Q12852 1-520): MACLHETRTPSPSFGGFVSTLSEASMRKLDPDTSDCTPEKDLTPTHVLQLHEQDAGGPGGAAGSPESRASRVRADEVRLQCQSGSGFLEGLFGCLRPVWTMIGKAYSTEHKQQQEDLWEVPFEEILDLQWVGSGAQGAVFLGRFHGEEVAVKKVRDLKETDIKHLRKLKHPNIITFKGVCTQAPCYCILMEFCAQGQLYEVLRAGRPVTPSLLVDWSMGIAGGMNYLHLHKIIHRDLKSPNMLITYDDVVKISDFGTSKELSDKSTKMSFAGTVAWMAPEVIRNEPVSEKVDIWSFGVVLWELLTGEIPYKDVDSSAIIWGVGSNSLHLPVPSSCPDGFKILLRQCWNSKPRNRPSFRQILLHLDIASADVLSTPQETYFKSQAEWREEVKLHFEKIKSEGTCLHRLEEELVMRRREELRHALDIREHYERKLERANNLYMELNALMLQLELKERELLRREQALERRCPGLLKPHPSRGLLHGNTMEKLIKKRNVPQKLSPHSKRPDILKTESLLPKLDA

SMILES	IC50 (LZK) [nM]	IC50 (DLK) [nM]
C[C@H](NC(=O)c1cc(-c2ccc3nc(N)nn3c2)c(F)s1)c1ccc(F)cc1 [Compound 362]	23000	8200
Nc1nc2cc(-c3csc(C(=O)NCc4ccc(F)cc4)c3)ccn2n1 [Compound 363]	8700	640
COc1cccc(CNC(=O)c2cc(-c3ccn4nc(N)nc4c3)cs2)c1 [Compound 364]	19000	400
Nc1nc2cc(-c3csc(C(=O)NCc4ccccc4)c3)ccn2n1 [Compound 365]	11000	500
Nc1nc2cc(-c3csc(C(=O)NCC4CCCCC4)c3)ccn2n1 [Compound 366]	> 30000	310
CCOc1cccc(CNC(=O)c2cc(-c3ccn4nc(N)nc4c3)cs2)c1 [Compound 367]	28000	300
Cc1cccc(C)c1NC(=O)c1cc(-c2ccn3nc(N)nc3c2)cs1 [Compound 368]	13000	670
C[C@H](NC(=O)c1cc(-c2ccn3nc(N)nc3c2)cs1)c1ccc(F)cc1 [Compound 369]	1900	230
Nc1nc2cc(-c3csc(C(=O)NCc4ccc(F)cc4)c3)cc(C(=O)O)n2n1 [Compound 370]	> 30000	4400
Cc1cc(-c2csc(C(=O)NCc3ccc(F)cc3)c2)cn2nc(N)nc12 [Compound 371]	2300	500
COc1cccc(CNC(=O)c2cc(-c3cc(C)c4nc(N)nn4c3)cs2)c1 [Compound 372]	9200	430
Cc1cc(-c2csc(C(=O)NCc3ccccc3)c2)cn2nc(N)nc12 [Compound 373]	2800	370
Cc1cc(-c2csc(C(=O)NC3CCCCC3)c2)cn2nc(N)nc12 [Compound 374]	9300	280
Nc1nc2c(C(F)(F)F)cc(-c3csc(C(=O)NCc4ccc(F)cc4)c3)cn2n1 [Compound 375]	3300	840
C[C@H](NC(=O)c1cc(-c2cc(C(F)(F)F)c3nc(N)nn3c2)cs1)c1ccccc1 [Compound 376]	4900	260
C[C@H](NC(=O)c1cc(-c2cc(C(F)(F)F)c3nc(N)nn3c2)cs1)c1ccc(F)cc1 [Compound 377]	2400	210
Nc1nc2c(C(F)(F)F)cc(-c3csc(C(=O)NCc4ccccc4)c3)cn2n1 [Compound 378]	9500	1800
Nc1nc2c(C(F)(F)F)cc(-c3csc(C(=O)NC4CCCCC4)c3)cn2n1 [Compound 379]	20000	970
COc1cccc(CNC(=O)c2cc(-c3cc(C(F)(F)F)c4nc(N)nn4c3)cs2)c1 [Compound 380]	> 30000	1100

SMILES	IC50 (LZK) [nM]	IC50 (DLK) [nM]
COc1cccc(CNC(=O)c2cc(-c3cc(F)c4nc(N)nn4c3)cs2)c1 [Compound 381]	> 30000	380
Nc1nc2c(F)cc(-c3csc(C(=O)NCc4ccc(F)cc4)c3)cn2n1 [Compound 382]	> 30000	310
C[C@H](NC(=O)c1cc(-c2cc(F)c3nc(N)nn3c2)cs1)c1ccc(F)cc1 [Compound 383]	> 30000	> 30000
CC(C)NS(=O)(=O)c1cc(-c2csc(C(=O)N[C@@H](C)c3ccc(F)cc3)c2)cn2nc(N)nc12 [Compound 384]	> 30000	> 30000
CCNS(=O)(=O)c1cc(-c2csc(C(=O)N[C@@H](C)c3ccc(F)cc3)c2)cn2nc(N)nc12 [Compound 385]	> 30000	11000
CNS(=O)(=O)c1cc(-c2csc(C(=O)N[C@@H](C)c3ccc(F)cc3)c2)cn2nc(N)nc12 [Compound 386]	> 30000	3400
COCc1cc(-c2csc(C(=O)NCc3ccc(F)cc3)c2)cn2nc(N)nc12 [Compound 387]	2800	750
COCc1cc(-c2csc(C(=O)N[C@@H](C)c3ccc(F)cc3)c2)cn2nc(N)nc12 [Compound 388]	1200	210
CC(C)c1nnc(-c2cc(-c3csc(C(=O)N[C@@H](C)c4ccc(F)cc4)c3)cn3nc(N)nc23)s1 [Compound 392]	830	100
CCc1nnc(-c2cc(-c3csc(C(=O)NCc4ccc(F)cc4)c3)cn3nc(N)nc23)s1 [Compound 394]	2500	410
CCc1nnc(-c2cc(-c3csc(C(=O)NCc4ccc(F)cc4)c3)cn3nc(N)nc23)o1 [Compound 395]	3600	1100
CCc1nnc(-c2cc(-c3csc(C(=O)N[C@@H](C)c4ccc(F)cc4)c3)cn3nc(N)nc23)o1 [Compound 396]	980	310
CCc1nnc(-c2cc(-c3csc(C(=O)N[C@@H](C)c4ccc(F)cc4)c3)cn3nc(N)nc23)s1 [Compound 397]	1100	73
CCC(C)c1nnc(-c2cc(-c3csc(C(=O)N[C@@H](CC)c4ccc(F)cc4)c3)cn3nc(N)nc23)s1 (stereo partly shown) [Compound 398]	3900	880
CCC(C)c1nnc(-c2cc(-c3csc(C(=O)N[C@@H](C)c4ccc(F)cc4)c3)cn3nc(N)nc23)s1 (stereo partly shown) [Compound 399]	3950	1760
CCC(C)c1nnc(-c2cc(-c3csc(C(=O)NCc4ccc(F)cc4)c3)cn3nc(N)nc23)s1 (stereo not shown) [Compound 400]	4350	2150
CC[C@H](NC(=O)c1cc(-c2cc(-c3nnc([C@@H](C)CO)s3)c3nc(N)nn3c2)cs1)c1ccc(F)cc1 [Compound 401]	115	8.1
CC[C@H](NC(=O)c1cc(-c2cc(-c3cnn(CC(F)(F)F)c3)n3nc(N)nc3c2)cs1)c1ccc(F)cc1 [Compound 402]	1900	69
CC[C@H](NC(=O)c1cc(-c2cc(-c3cnn(CC(F)(F)F)c3)c3nc(N)nn3c2)cs1)c1ccc(F)cc1 [Compound 403]	5700	140
